Reference: US20040254178A1, “Substituted heterocyclic compounds and methods of use” (Amgen Inc., priority 2003, published 2004)

Test system: LPS induced TNF release
Assay: Lipopolysaccharide-Activated THP1 Cell TNF Production Assay
Format: cell-based
Conditions: Homo sapiens, THP-1, THP1 cells, 3 h at 37° C., secreted TNF-α read by ECL
Procedure: Lipopolysaccharide-Activated THP1 Cell TNF Production Assay
THP1 cells are resuspended in fresh THP1 media (RPMI 1640, 10% heat-inactivated FBS, 1XPGS, 1XNEAA, plus 30 μM βME) at a concentration of 1E6/mL. One hundred microliters of cells per well are plated in a polystyrene 96-well tissue culture. One microgram per mL of bacterial LPS is prepared in THP1 media and is transferred to the wells. Test compounds are dissolved in 100% DMSO and are serially diluted 3 fold in a polypropylene 96-well microtiter plate (drug plate). HI control and LO control wells contain only DMSO. One microliter of test compound from the drug plate followed by 10 μL of LPS are transferred to the cell plate. The treated cells are induced to synthesize and secrete TNF-α at 37° C. for 3 h. Forty microliters of conditioned media are transferred to a 96-well polypropylene plate containing 110 μL of ECL buffer (50 mM Tris-HCl pH 8.0, 100 mM NaCl, 0.05% Tween 20, 0.05% NaN3 and 1% FBS) supplemented with 0.44 nM MAB610 monoclonal Ab (R&D Systems), 0.34 nM ruthenylated AF210NA polyclonal Ab (R&D Systems) and 44 μg/mL sheep anti-mouse M280 Dynabeads (Dynal). After a 2 h incubation at room temperature with shaking, the reaction is read on the ECL M8 Instrument (IGEN Inc.). A low voltage is applied to the ruthenylated TNF-α immune complexes, which in the presence of TPA (the active component in Origlo), results in a cyclical redox reaction generating light at […]. The amount of secreted TNF-α in the presence of compound compared with that in the presence of DMSO vehicle alone (HI control) is calculated using the formula: % control (POC)=(cpd−average LO)/(average HI−average LO)*100. Data (consisting of POC and inhibitor concentration in μM) is fitted to a 4-parameter equation (y=A+((B−A)/(1+((x/C)^D))), where A is the minimum y (POC) value, B is the maximum y (POC), C is the x (cpd concentration) at the point of inflection and D is the slope factor) using a Levenburg-Marquardt non-linear regression algorithm.

| IC50 | SMILES |
| --- | --- |
| ≤ 20 µM | Cc1c(C2CCN(C(=O)[C@@H](C)O)CC2)nnc(-c2cccc(C(F)(F)F)c2)c1-c1ccnc(NC(C)c2ccccc2)n1 (stereo in doubt) [2-Hydroxy-1-{4-[4-methyl-5-[2-(1-phenyl-ethylamino)-pyrimidin-4-yl]-6-(3-trifluoromethyl-phenyl)-pyridazin-3-yl]-piperidin-1-yl}-propan-1-one] |
| ≤ 20 µM | Cc1c(C2CCN(C(=O)OCc3ccccc3)CC2)nnc(-c2cccc(C(F)(F)F)c2)c1-c1ccnc(NC(C)c2ccccc2)n1 (stereo not drawn) [4-[4-Methyl-5-[2-(1-phenyl-ethylamino)-pyrimidin-4-yl]-6-(3-trifluoromethylphenyl)-pyridazin-3-yl]-piperidine-1-carboxylic acid benzyl ester] |
| ≤ 20 µM | Cc1c(C2CCNCC2)nnc(-c2cccc(C(F)(F)F)c2)c1-c1ccnc(NC(C)c2ccccc2)n1 (stereo not drawn) [{4-[5-Methyl-6-piperidin-4-yl-3-(3-trifluoromethyl-phenyl)-pyridazin-4-yl]-pyrimidin-2-yl}-(1-phenyl-ethyl)-amine] |
